Tests used:
Experiment in all cases: Test B pre-/postemergence plant response
Format in all cases: in vivo
[1] = test system: downy bromegrass (Bromus tectorum); settings: for Bromegrass, Downy plant response rating (0 to 100 scale): 62 g ai/ha, postemergence, 0 is no effect, 100 is complete control; for Plant response rating, Bromegrass, Downy: Postemergence
In short: (§1)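 Seeds were sown in loam soil/sand blend and treated preemergence with compound in non-phytotoxic solvent mixture containing surfactant; postemergence sprays, same formulation, went onto plants 2 to 18 cm (1- to 4-leaf stage) in peat-based planting medium. Greenhouse 13 to 15 days, then visual rating versus untreated controls, 0 (no effect) to 100 (complete control).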

[2] = test system: giant foxtail (Setaria faberii); settings: for Plant response rating, Foxtail, Giant: Postemergence
In short: as §1

[3] = test system: goosegrass (Eleusine indica); settings: for Plant response rating, Goosegrass: Postemergence
In short: as §1

[4] = test system: green foxtail (Setaria viridis); settings: for Plant response rating, Foxtail, Green: Postemergence
In short: as §1

[5] = test system: johnsongrass (Sorghum halepense); settings: for Plant response rating, Johnsongrass: Postemergence
In short: as §1

kochia (Kochia scoparia) = settings: for Plant response rating, Kochia: Postemergence
In short: as §1

[6] = test system: lambsquarters (Chenopodium album); settings: for Plant response rating, Lambsquarters: Postemergence
In short: as §1

[7] = test system: large crabgrass (Digitaria sanguinalis); settings: for Plant response rating, Crabgrass, Large: Postemergence
In short: as §1

[8] = test system: pigweed (Amaranthus retroflexus); settings: for Plant response rating, Pigweed: Postemergence
In short: as §1

[9] = test system: velvetleaf (Abutilon theophrasti); settings: for Plant response rating, Velvetleaf: Postemergence
In short: as §1

[10] = test system: wheat (Triticum aestivum); settings: for Plant response rating, Wheat: Postemergence
In short: as §1

[11] = test system: woolly cupgrass (Eriochloa villosa); settings: for Plant response rating, Cupgrass, Woolly: Postemergence
In short: as §1

[12] = test system: yellow nutsedge (Cyperus esculentus); settings: for Plant response rating, Nutsedge, Yellow: Postemergence
In short: as §1

[13] = 31 g ai/ha, 0 to 100 scale (0 no effect, 100 complete control)
[14] = 125 g ai/ha, scale 0 to 100 (0 no effect, 100 complete control)
[15] = 250 g ai/ha, scale 0 to 100 (0 no effect, 100 complete control), 13 to 15 days
[16] = 62 g ai/ha, postemergence, 0 is no effect, 100 is complete control, 13 to 15 days

With `CCCn1c(-c2cccc(C(F)(F)F)c2)ncc(C(=O)C2=C(O)CCCC2=O)c1=O` [Compound 155] the “Bromegrass, Downy plant response rating (0 to 100 scale)” value ([1]; 13 to 15 days) was 30, the “Plant response rating, Bromegrass, Downy” value [1, 13] was 5 and the “Plant response rating, Bromegrass, Downy” value [1, 14] was 35. The “Plant response rating, Bromegrass, Downy” value [1, 15] was 50, the “Foxtail, Giant plant response rating (0 to 100 scale)” value [2, 16] was 80 and the “Plant response rating, Foxtail, Giant” value [2, 13] was 65. For the same compound, the “Plant response rating, Foxtail, Giant” value [2, 14] was 90, the “Plant response rating, Foxtail, Giant” value [2, 15] was 95 and the “Goosegrass plant response rating (0 to 100 scale)” value [3, 16] was 80. For the same compound, the “Plant response rating, Goosegrass” value [3, 13] was 65, the “Plant response rating, Goosegrass” value [3, 14] was 85 and the “Plant response rating, Goosegrass” value [3, 15] was 98. For the same compound, the “Foxtail, Green plant response rating (0 to 100 scale)” value [4, 16] was 50, the “Plant response rating, Foxtail, Green” value [4, 13] was 25 and the “Plant response rating, Foxtail, Green” value [4, 14] was 80. For the same compound, the “Plant response rating, Foxtail, Green” value [4, 15] was 80, the “Johnsongrass plant response rating (0 to 100 scale)” value [5, 16] was 40 and the “Plant response rating, Johnsongrass” value [5, 13] was 10. The “Plant response rating, Johnsongrass” value [5, 14] was 65, the “Plant response rating, Johnsongrass” value [5, 15] was 70 and the “Kochia plant response rating (0 to 100 scale)” value (kochia (Kochia scoparia); [16]) was 100. For the same compound, the “Plant response rating, Kochia” value (kochia (Kochia scoparia); [13]) was 35, the “Plant response rating, Kochia” value (kochia (Kochia scoparia); [14]) was 100 and the “Plant response rating, Kochia” value (kochia (Kochia scoparia); [15]) was 100. The “Lambsquarters plant response rating (0 to 100 scale)” value [6, 16] was 100, the “Plant response rating, Lambsquarters” value [6, 13] was 98 and the “Plant response rating, Lambsquarters” value [6, 14] was 100. The “Plant response rating, Lambsquarters” value [6, 15] was 100, the “Crabgrass, Large plant response rating (0 to 100 scale)” value [7, 16] was 75 and the “Plant response rating, Crabgrass, Large” value [7, 13] was 60. For the same compound, the “Plant response rating, Crabgrass, Large” value [7, 14] was 80, the “Plant response rating, Crabgrass, Large” value [7, 15] was 90 and the “Pigweed plant response rating (0 to 100 scale)” value [8, 16] was 100. For the same compound, the “Plant response rating, Pigweed” value [8, 13] was 98, the “Plant response rating, Pigweed” value [8, 14] was 100 and the “Plant response rating, Pigweed” value [8, 15] was 100. For the same compound, the “Velvetleaf plant response rating (0 to 100 scale)” value [9, 16] was 100, the “Plant response rating, Velvetleaf” value [9, 13] was 100 and the “Plant response rating, Velvetleaf” value [9, 14] was 100. The “Plant response rating, Velvetleaf” value [9, 15] was 100, the “Wheat plant response rating (0 to 100 scale)” value [10, 16] was 30 and the “Plant response rating, Wheat” value [10, 13] was 15. The “Plant response rating, Wheat” value [10, 14] was 40, the “Plant response rating, Wheat” value [10, 15] was 70 and the “Cupgrass, Woolly plant response rating (0 to 100 scale)” value [11, 16] was 45. For the same compound, the “Plant response rating, Cupgrass, Woolly” value [11, 13] was 20, the “Plant response rating, Cupgrass, Woolly” value [11, 14] was 65 and the “Plant response rating, Cupgrass, Woolly” value [11, 15] was 75. For the same compound, the “Nutsedge, Yellow plant response rating (0 to 100 scale)” value [12, 16] was 45, the “Plant response rating, Nutsedge, Yellow” value [12, 13] was 20 and the “Plant response rating, Nutsedge, Yellow” value [12, 14] was 70. For the same compound, the “Plant response rating, Nutsedge, Yellow” value [12, 15] was 75.

`CCCn1c(-c2cc(C)cc(C)c2)ncc(C(=O)C2=C(O)CCCC2=O)c1=O` [Compound 156] was tested, and the “Bromegrass, Downy plant response rating (0 to 100 scale)” value ([1]; 13 to 15 days) was 10, the “Plant response rating, Bromegrass, Downy” value [1, 13] was 10 and the “Plant response rating, Bromegrass, Downy” value [1, 14] was 35. For the same compound, the “Plant response rating, Bromegrass, Downy” value [1, 15] was 40, the “Plant response rating, Foxtail, Giant” value [2, 13] was 75 and the “Plant response rating, Foxtail, Giant” value [2, 14] was 85. For the same compound, the “Plant response rating, Foxtail, Giant” value [2, 15] was 90, the “Plant response rating, Goosegrass” value [3, 13] was 65 and the “Plant response rating, Goosegrass” value [3, 14] was 70. For the same compound, the “Plant response rating, Goosegrass” value [3, 15] was 80, the “Plant response rating, Foxtail, Green” value [4, 13] was 45 and the “Plant response rating, Foxtail, Green” value [4, 14] was 85. For the same compound, the “Plant response rating, Foxtail, Green” value [4, 15] was 85, the “Plant response rating, Johnsongrass” value [5, 13] was 15 and the “Plant response rating, Johnsongrass” value [5, 14] was 45. The “Plant response rating, Johnsongrass” value [5, 15] was 65, the “Plant response rating, Kochia” value (kochia (Kochia scoparia); [13]) was 10 and the “Plant response rating, Kochia” value (kochia (Kochia scoparia); [14]) was 20. For the same compound, the “Plant response rating, Kochia” value (kochia (Kochia scoparia); [15]) was 25, the “Plant response rating, Lambsquarters” value [6, 13] was 80 and the “Plant response rating, Lambsquarters” value [6, 14] was 95. The “Plant response rating, Lambsquarters” value [6, 15] was 100, the “Plant response rating, Crabgrass, Large” value [7, 13] was 45 and the “Plant response rating, Crabgrass, Large” value [7, 14] was 65. The “Plant response rating, Crabgrass, Large” value [7, 15] was 80, the “Plant response rating, Pigweed” value [8, 13] was 60 and the “Plant response rating, Pigweed” value [8, 14] was 98. The “Plant response rating, Pigweed” value [8, 15] was 100, the “Plant response rating, Velvetleaf” value [9, 13] was 60 and the “Plant response rating, Velvetleaf” value [9, 14] was 95. The “Plant response rating, Velvetleaf” value [9, 15] was 100, the “Plant response rating, Wheat” value [10, 13] was 15 and the “Plant response rating, Wheat” value [10, 14] was 35. The “Plant response rating, Wheat” value [10, 15] was 45, the “Plant response rating, Cupgrass, Woolly” value [11, 13] was 40 and the “Plant response rating, Cupgrass, Woolly” value [11, 14] was 55. For the same compound, the “Plant response rating, Cupgrass, Woolly” value [11, 15] was 65, the “Plant response rating, Nutsedge, Yellow” value [12, 13] was 45 and the “Plant response rating, Nutsedge, Yellow” value [12, 14] was 70. The “Plant response rating, Nutsedge, Yellow” value [12, 15] was 75.

— patent publication US8952024B2, “Herbicidal pyrimidone derivatives” (E I du Pont de Nemours and Company, priority 2009, dated 2015)
